{"source": "patent US20180149639A1", "about": "“MODELING NEURAL NETWORK DYSFUNCTION” (priority 2014, published 2018)", "key": {"WT cortical networks": {"tested_on": "WT cortical networks", "assay": "MEA recordings of WT cortical cultures (spike rate, NAP/NIP duration from ASDR plot)", "type": "cell-based, mice", "protocol": "(§1) Primary dissociated cortical neurons were prepared from postnatal day 0 wild type and Shank3 KO mice (Peca et al., 2011) from littermates using standard protocols as described before (Ramamoorthi et al., 2011). For micro-electrode array recordings, dissociated neurons were plated onto substrate embedded electrodes pre-coated with polyethyleneimine (PEI) (Sigma-Aldrich, 0.1%) plus laminin (Life Technologies, 20 μg/ml) at a density of 3×10^3 cells/mm^2. For biochemical experiments, 3×10^5 cells were plated onto 1 well of the 24-well plate pre-coated with 20 μg/ml Poly-D-lysine (PDL, Sigma-Aldrich) and 4 μg/ml laminin (Life Technologies). The cultures were treated with AraC (Sigma-Aldrich, 1 μg/ml) at day 5 in vitro, and maintained up to 21 days after plating.\n(§2) The electrical activity of cultured neurons was recorded using MEA2100-Systems (Multichannel Systems) with integrated amplifier. Each MEA dish (6-well MEA 200/30 iR-Ti-rcr, Multichannel Systems) contains six wells, with 9 microelectrodes (TiN, 30 μm diameter) arranged over a 3×3 square grid at 200 μm inter-electrode distance in each MEA well (FIG. 1C). Recordings started 10 minutes after the MEA plates were placed to the headstage, which was set to 35° C., and the culture was supplied with continuous perfusion of 5% carbon dioxide balanced air (Airgas) throughout recording. For all time points earlier than 21 days in vitro (DIV21), MEA recordings lasted 15 minutes. At DIV21, MEA recordings lasted 30 minutes. All MEA recordings were performed in culture medium without perfusion. The electric signals were collected at 10 kHz with MCRack (Multichannel Systems; Version 4.4.2) and analyzed offline.\n(§3) The software MCRack was used for spike detection. Raw MEA data was first high-pass filtered at 200 Hz to remove the low-frequency local field potentials. […] The average detection threshold is around 16 μV. Spike sorting was not performed, thus multiunit activity may contribute to the spikes detected from one electrode. Timestamps of spikes were stored and used for further analysis.\n(§4) ASDR plot was generated using the method modified from Wagenaar et al. (2008) by summing the number of spikes detected per 200 ms from all electrodes in each well and plotted in time series. Clampfit 10.2 (Molecular Devices) was used for ASDR waveform analysis. 5% of individual ASDR's maximum peak value was calculated and set as the detecting threshold for identifying ASDR spike. […] ASDR spikes with ISIs below 10 seconds were grouped together and defined as network active period (NAP).\n(§5) All drugs were dissolved in DMSO to make stock solutions before applying to neurons in culture media for pharmacological studies. Picrotoxin (PTX, stock solution of 100 mM) for blocking GABAA receptors (Tocris), Clonazepam (stock solution of 30 mM) as GABAA receptor positive modulator (Sigma), NBQX (stock solution of 10 mM) for blocking AMPA receptor (Abcam), and CX546 (stock solution of 100 mM) as AMPA receptor potentiator (Tocris) were used in doses as described herein. The maximum concentration of DMSO in the culture media with drug application was 0.08% volume."}, "[1]": {"tested_on": "Shank3 KO cortical networks", "assay": "MEA recordings of Shank3 KO cortical cultures (spike rate, NAP/NIP duration from ASDR plot)", "type": "cell-based, mice", "conditions": "for NIP duration relative to WT level: 100 nM", "protocol": "as §1, §2, §3, §4, §5"}}, "note": "“Also recorded” adds a separate entry of the source."}
{"compound": "O=C1CN=C(c2ccccc2Cl)c2cc([N+](=O)[O-])ccc2N1", "note": "[CLP, Clonazepam]", "values": [{"measurement": "NIP duration, dose dependence", "setting": "WT cortical networks; WT cortical networks DIV21", "value": "dose dependently elongated"}, {"measurement": "NIP duration, % longer", "setting": "WT cortical networks; WT cortical networks DIV21, 100 nM, vs before treatment (basal)", "value": "42±14", "unit": "%"}, {"measurement": "NIP duration, dose dependence", "setting": "[1]; Shank3 KO networks DIV21", "value": "dose dependently increased"}, {"measurement": "NIP duration relative to WT level", "setting": "[1]; Shank3 KO networks DIV21", "value": "normalized the shortened NIP in the Shank3 KO network to the level of WT; also recorded: normalized reduced NIP duration"}, {"measurement": "NIP duration relative to WT level", "setting": "[1]; Shank3 KO networks DIV21, listed as clonazepam", "value": "normalized"}]}
{"compound": "O=C(c1ccc2c(c1)OCCO2)N1CCCCC1", "note": "[CX546]", "values": [{"measurement": "NIP duration (decreased to)", "setting": "WT cortical networks; WT cortical networks DIV21, 30 μM", "value": "58±11", "unit": "%"}, {"measurement": "length of NAP", "setting": "WT cortical networks; WT cortical networks DIV21, up to 30 μM", "value": "remained unchanged"}, {"measurement": "mean spike rate (reduced-firing) in spontaneous network", "setting": "[1]; Shank3 KO cultures DIV21, 30 μM", "value": "rescued the reduced-firing; also recorded: rescued the hypoactive network"}, {"measurement": "mean spike rate (reduced-firing) in PTX-treated network", "setting": "[1]; Shank3 KO cultures DIV21 with 50 μM PTX, 30 μM", "value": "effectively rescued the reduced-firing"}, {"measurement": "duration of NAP", "setting": "[1]; Shank3 KO networks DIV21", "value": "did not significantly change"}, {"measurement": "duration of NIP", "setting": "[1]; Shank3 KO networks DIV21, CX546 treatment", "value": "did not significantly change; also recorded: did not recover the network defect"}]}
{"compound": "NS(=O)(=O)c1cccc2c1c([N+](=O)[O-])cc1nc(O)c(O)nc12", "note": "[NBQX]", "values": [{"measurement": "NIP duration (enhanced by)", "setting": "WT cortical networks; WT cortical networks DIV21, 1 μM", "value": "560±85", "unit": "%"}]}
{"compound": "Picrotoxin [PTX]", "values": [{"measurement": "NIP duration compared to basal (reduced to)", "setting": "WT cortical networks; WT cortical networks DIV21, 0.2 μM", "value": "51±6", "unit": "%"}, {"measurement": "NIP duration compared to basal (reduced to)", "setting": "WT cortical networks; WT cortical networks DIV21, 0.5 μM", "value": "44±6", "unit": "%"}, {"measurement": "length of NAP", "setting": "WT cortical networks; WT cortical networks DIV21, up to 0.5 μM", "value": "remained unchanged"}, {"measurement": "mean spike rate", "setting": "WT cortical networks; WT cultures DIV21, 50 μM, vs before treatment", "value": "significantly increased"}, {"measurement": "mean spike rate", "setting": "[1]; Shank3 KO cultures DIV21, 50 μM, vs before treatment", "value": "significantly increased"}]}
